Data on two compounds can be found in ChEMBL document CHEMBL1240402 (2010).

Converted amounts (≈) assume the structure as drawn.

This assay deals with Clostridium perfringens.

Usually MIC stands for the lowest concentration that inhibits growth of the organism. Higher therefore signals a less susceptible organism.

The compound `CC(=O)NC[C@H]1CN(c2ccc(N3CCOCC3)c(F)c2)C(=O)O1` [LINEZOLID] returned an MIC of 64 µg/mL (≈ 190 µM). Then `CS(=O)(=O)c1ccc([C@@H](O)[C@@H](CF)NC(=O)C(Cl)Cl)cc1` [FLORFENICOL], with 16 µg/mL (≈ 44.7 µM).
